Measured values reported in patent publication US6441036B1 (priority 1998, dated 2002).

Assays:
[1] = Lipid lowering effect in normal Wistar rats (Example 4); assay type: in vivo; settings: gavage once daily for 7 days; dose mg/day/kg body weight: TSA 15, EPA 1500, TTA 150
Experimental: Phospholipids were measured by the enzymatic method of bioMérieux, Marcy-l{grave over ( )}Etoile, France, Triacylglycerol by the Technicon Method no. SA4-0324L90, USA and Cholesterol by the Technicon Method no. SA4-0305L90, USA.
Male Wistar rats, weighing 180-200 g at the start of the experiment, were housed individually in metal wire cages in a room maintained at 12 h light-dark cycles and a constant temperature of 20±3° C. The animals were acclimatised for one week under these conditions before the start of the experiments.
TTA, TSA and eicosapentaenoic acid (EPA) were suspended in 0.5% (w/v) carboxymethyl cellulose (CMC). Six animals were used for each treatment, and a 0.5% CMC solution was administrated to the rats as control. After administration of the test compound, the rats were fasted for 12 hours and anaesthetised with haloethan. The EPA and the fatty acid derivatives were administered by gastric intubation (gavage) once daily for 7 days. Blood samples were collected by cardiac puncture, and lipid concentrations in plasma were determined as outlined in the method section.

[2] = Euglycemic hyperinsulinemic clamp, high fat diet induced insulin resistance (Example 12); assay type: in vivo, Wistar Charles River rats; settings: HF diet supplemented with TTA, 21 days; 45-90 minutes of clamp
Experimental: After 21 days on their respective diets (see above), the rats were anaesthetised by injection of xylazine hydrochloride (Rometar SPOFA, Prague, Czech Republic; 10 mg/ml) and ketamine hydrochloride (Narkamon SPOFA, Prague, Czech republic; 75 mg/ml), and fitted with chronic carotid artery and jugular vein cannulas as described by Koopmans et al. (Koopmans, S. J., et al., Biochim Biophys Acta, 1115, […] 1992.). The cannulated rats were allowed to recover for two days after surgery before the clamping studies which were carried out according to Kraegen et al. (Kraegen, E. W., et al., Am J Physiol, 248, E353-E362 1983.). Thus, on the third day after surgery, unrestrained conscious rats were given a continuous infusion of porcine insulin (Actrapid, Novo Nordisk, Denmark) at a dose of 6.4mU per kg per min to achieve plasma insulin levels in the upper physiological range. The arterial blood glucose concentration was clamped at the basal fasting level, by variable infusion of a 30% w/v glucose solution (Leciva, Prague, Czech Republic). […]
Rats weighing 330±20 g were divided into 3 groups (n=9) and fed with three different diets: standard rat chow, high fat diet (HF) and HF supplemented with TTA. […] The glucose infusion rate (GIR) was determined from the period of the clamp where glycemia got stabilised, i.e. between 45-90 minutes after clamp commencement. […]

[3] = Hepatic levels of triacylglycerol (Example 17); assay type: in vivo, Wistar rats; settings: fed 6 days, no prefeeding; TTA 150 mg/kg/day, TTP 300 mg/kg/day
Experimental: Male Wistar rats had free access to water and rat maintenance chow. They were fed palmitic acid or fatty acid analogues suspended in 0.5% CMC for 6 days. In some experiments TTA or TTP were fed for 3 days before feeding both for 6 days. At the end of the experiment the rats were fasted overnight, killed, the liver removed and homogenized. Triacylglycerol was measured in the homogenate.

[4] = Plasma lipids after feeding moderate doses to animals; assay type: in vivo, rats, mice, rabbits and dogs; settings: within days of treatment

Tetradecylthioacetic acid [TTA]
Plasma lipids: cholesterol [1]: 30 % reduction of control
Plasma lipids: triglycerides [1]: 45 % reduction of control
Glucose infusion rate (GIR) in clamp (FIG. 4) [2]: fully normal
Hepatic TG (triacylglycerol) [3]: 7.7 ± 2.9 µmol/g
Plasma cholesterol and triacylglycerol levels [4]: decreased
